Measurements from patent US7491501B2, “Methods for identifying modulators of intracellular aggregate formation” (Auburn University, priority 2003, dated 2009).

Tested on: 26S proteasome
Assay: In vitro deubiquitination assay of K63 polyubiquitinated tau with 26S proteasome
Type: biochemical
Settings: Ub-H 1 or 10 μM, 26S proteasome 40 or 80 nM, 2 h 37° C.
Protocol: In Vitro Ubiquitination and Deubiquitination Assay—His-tagged tau construct was expressed in HEK 293 cells by calcium phosphate method. The cells were collected, washed with PBS and lysed with SDS lysis buffer. The lysate was immunoprecipitated with tau antibody and bound to secondary antibody coupled with agarose beads. Fifty microliters of the reaction buffer (50 mM Tris pH 7.5, 2.5 mM MgCl2, 2 mM DTT, 2 mM ATP) containing 100 ng El, 200 ng UbcH7 (E2), 100 μg TRAF6 (E3) and 5 μg of GST-WT Ub, or its mutants K29R, K48R, and K63R Ub was added to the immunoprecipitated tau. The beads were incubated at 37° C. for 2 h by continuous shaking, then washed three times with reaction buffer. The proteins were released by boiling for 2 min in SDS-PAGE sample buffer, electrophoresed on 7.5% SDS-PAGE and western blotted with antibody to ubiquitin and tau. For the in vitro deubiquitination assay, the ubiquitinated tau was treated with 26S proteasome (40 or 80 nM) in 30 μl of buffer containing 50 mM Tris-HCl, pH 7.5, 2 mM MgCl2, 2 mM ATP for 2 h at 37° C. The deubiquitination of tau by the 26S proteasome was blocked by the addition of ubiquitin aldehyde (Ub-H), an inhibitor of ubiquitin isopeptidases (1 or 10 μM). The samples were boiled in sample buffer, resolved by 7.5% SDS-PAGE and western blotted with anti-ubiquitin or anti-tau. […]

## ubiquitin aldehyde [Ub-H]
  polyubiquitin degradation (deubiquitination of tau) by 26S proteasome: inhibited
